In patent US20140271734A1, “BILE ACID RECYCLING INHIBITORS FOR TREATMENT OF BARRETT'S ESOPHAGUS AND GASTROESOPHAGEAL REFLUX DISEASE” (LUMENA PHARMACEUTICALS, INC., priority 2013, published 2014):
Marks after values point to notes of the source that are not given here.

Tests used:
[1] = tested on: serum total bile acid (SBA); assay: Duration of action of LUM001 on dog SBA, Method 1 (two meals); type: in vivo, beagle dogs; conditions: 0.2 mg/kg p.o. at 1 hr; full meal 0 hr, half meal 4 hr; 4.5 hr
Description: Male beagle dogs were obtained from Covance Research Products, Cumberland Va. or Marshall Farms USA, Inc., North Rose N.Y. A total of 20 dogs, 1 to 5 years old, 6.8 to 15.6 kg body weight, were used in these experiments. The dogs were conditioned to a 12 hour light/dark cycle and maintained on a feeding restriction of 1 hour per day access to food (Richman Standard Certified Canine Diet #5007, PMI Nutrition, Inc., St. Louis Mo.) from 7 to 8 AM. They were trained to eat a special meal promptly within 20 minutes when presented (1 can. 397 g, Evanger's 100% Beef for Dogs, Evanger's Dog and Cat Food Co., Inc., Wheeling Ill., mixed with 50 g of sharp cheddar cheese.).
SBA was measured by an enzymatic assay. SBA values are expressed as μg of total bile acids/ml of serum.
In dogs a single experimental meal produces a postprandial rise in SBA that is elevated to a peak at 1 hour after feeding and constant for an additional 3 hours. Previous experiments (2) indicate that LUM001 remains active for more than 4.5 hours. To measure the duration of action of an ASBT inhibitor using postprandial SBA levels requires that in the control situation the SBA levels remain elevated and constant for the entire period of compound action, or that the compound be administered long before the postprandial rise occurs, and remain active in the empty digestive system for long periods before feeding. […]

[2] = tested on: plasma triglycerides; assay: Plasma triglycerides in ZDF rats, week 3; type: in vivo; conditions: twice daily oral gavage, no dose-related response

Compound	Serum Bile Acid, mean [1]	Fasting plasma triglycerides [2]
CCCCC1(CCCC)CS(=O)(=O)c2ccc(N(C)C)cc2[C@@H](c2ccc(OCc3ccc(C[N+]45CCN(CC4)CC5)cc3)cc2)[C@H]1O [LUM001]	2.5* μg/ml	
CCCC[C@]1(CC)CS(=O)(=O)c2ccc(N(C)C)cc2[C@@H](c2cccc(NC(=O)N[C@@H]3O[C@H](COS(=O)(=O)[O-])[C@@H](O)[C@H](OCc4ccccc4)[C@H]3O)c2)[C@H]1O.CCO.O.[K+] [LUM002, potassium((2R,3R,4S,5R,6R)-4-benzyloxy-6-{3-[3-((3S,4R,5R)-3-butyl-7-dimethylamino-3-ethyl-4-hydroxy-1,1-dioxo-2,3,4,5-tetrahydro-1H-benzo[b]thiepin-5-yl)-phenyl]-ureido}-3,5-dihydroxy-tetrahydro-pyran-2-ylmethyl)sulphate ethanolate, hydrate]		statistically significant elevations
